Legend:
Type in all cases: cell-based
[1] = test system: innate live bacterial populations in poultry facility swabs; assay: 3-step metabolic labeling of poultry facility swabs with or without EDA, PIPER
Procedure: Experimental Detail: Swab samples were collected using sponge sticks (3M, Saint Paul, MN) soaked in Letheen broth (samples G, Q) or Neutralizing buffer (sample H). Samples were stored on ice and processed within 24 hours after collection. Eluents from the sponges were aseptically extracted and the rest was frozen at −80° C. until the time of analysis. Prior to 3-step metabolic labeling, an aliquot from each eluent was removed for serial dilution and plating on APC petrifilm (3M, Saint Paul, MN) and incubated as per manufacturer instructions to evaluate the number of total viable bacteria by the “gold standard” method. Each eluent sample was divided into two aliquots for incubation with EDA or without EDA, as a control for non-specific staining with the fluorophore. The 1st step of labeling was carried out by adding 5 μg/mL chloramphenicol and 1 mM EDA, where indicated, followed by 90 min incubation at 37° C. […]
(§1) FIG. 24 depicts how 3-step metabolic labeling detects innate live bacterial populations in poultry facility swabs. […] To convert the PIPER counts into the number of live bacteria per swab, the values were corrected for the volume of the viewing window relative to the total sample volume loaded into the cartridge lane, and the fraction of the total eluent volume analyzed.

[2] = test system: Salmonella Typhimurium and Klebsiella pneumoniae; assay: Two-step CLICK labeling with or without EDA, PIPER non-capture assay; conditions: 1 mM EDA, last 30 min of incubation; 25 μM CF488 picolyl azide
Procedure: FIG. 7 depicts both components of the two-step CLICK reaction are required for cell labeling. Salmonella Typhimurium (top panel) and Klebsiella pneumoniae (bottom panel) were grown overnight at 37° C. The next day, cells were diluted into fresh media and grown until they reached log-phase. The last 30 min of incubation were carried out in the presence or absence of 1 mM of EDA (D-propargylglycine, AK Scientific, Union City, CA). Cells were harvested by centrifugation (10 min 10,000 g), and supernatant was discarded. Bacteria were then washed, fixed by incubation with 4% paraformaldehyde, pelleted by centrifugation (10 min 10,000 g), and supernatant was discarded. […] An automated bacterial image recognition algorithm determined labeled cell counts (graphs).

[3] = test system: innate live bacterial populations in whole carcass rinsates; assay: 3-step metabolic labeling of whole carcass rinsates with or without EDA, PIPER; conditions: two whole carcass rinsate samples
Procedure: Experimental Detail: Whole carcass rinsate samples were prepared as per FSIS USDA guidance using two separate whole chickens from the grocery store obtained prior to “use by” date. Sodium polyanethol sulfonate was added to 0.05% to limit blood clotting. Prior to 3-step metabolic labeling, an aliquot from each rinsate was removed for serial dilution and plating on APC petrifilm (3M, Saint Paul, MN) and incubated as per manufacturer instructions to evaluate the number of total viable bacteria by the “gold standard” method. 1 mL rinsate aliquots were used for incubation with, or without EDA, as a control for non-specific staining with the fluorophore. The 1st step of labeling was carried out by adding 5 μg/mL chloramphenicol and 1 mM EDA, where indicated, followed by 90 min incubation at 37° C. […]
as §1, with “25” for “24”, “whole carcass rinsates. FIG. 25A depicts PIPER images of innate populations of live bacteria detected by 3-step metabolic labeling in two separate whole carcass rinsate samples.” for “poultry facility swabs.”, “sample” for “eluent”

SMILES: C#CC[C@@H](N)C(=O)O [EDA, D-propargylglycine]
- increase in PIPER cell counts over (-EDA) control ([1]; 1 mM EDA, 90 min at 37° C.): ~1.5 log
- signal on omitting EDA from the 1st step of labeling ([1]; swab samples H, G and Q): dramatic reduction of the signal
- signal of click labeling in the presence or absence of EDA [2]: No signal is observed when the click reagents are added in the absence of EDA
- signal on omitting EDA from the 1st step of labeling [3]: dramatic reduction of the signal

— patent US20250354192A1, “METHODS FOR QUANTIFYING LIVE BACTERIA” (priority 2022, published 2025)
